Where two headings read alike, the source gives them in different places.
How the values were obtained:
[1] = target: T1, hPPARγ (Homo sapiens, UniProt P37231); test: CV-1 PPRE×3 TK-Luciferase transient transfection assay; type: cell-based; settings: for PPARγ-dependent reporter gene expression by LNO2 decay products, oxidized linoleic acid derivatives and •NO donors: PPARγ-transfected CV-1 cells, FIG. 8C; for activation of PPARγ reporter gene expression compared with vehicle control: 1 and 3 μM, CV-1 cells, PPRE reporter
T1 construct: For assessing full-length PPAR receptors, CV-1 cells were transiently co-transfected; expressed in transfected cells; host or cells: CV-1 cells
T1 sequence (P37231 1-505): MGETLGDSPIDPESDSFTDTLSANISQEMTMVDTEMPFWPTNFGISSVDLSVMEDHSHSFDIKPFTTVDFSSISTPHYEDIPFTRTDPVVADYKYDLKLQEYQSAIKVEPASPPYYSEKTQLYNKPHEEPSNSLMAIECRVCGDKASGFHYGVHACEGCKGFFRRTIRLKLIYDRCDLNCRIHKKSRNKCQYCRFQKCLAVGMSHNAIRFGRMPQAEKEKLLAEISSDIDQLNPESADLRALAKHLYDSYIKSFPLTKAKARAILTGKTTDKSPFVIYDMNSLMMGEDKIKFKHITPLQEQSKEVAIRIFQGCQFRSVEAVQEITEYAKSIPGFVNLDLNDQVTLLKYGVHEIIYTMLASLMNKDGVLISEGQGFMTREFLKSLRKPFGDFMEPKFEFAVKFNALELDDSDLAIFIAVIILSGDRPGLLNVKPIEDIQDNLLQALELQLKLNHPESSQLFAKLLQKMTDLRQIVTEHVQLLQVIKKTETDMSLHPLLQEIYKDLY
Source text: Cell Transient Transfection Assay. […] Then, cells were transiently co-transfected with a plasmid containing the luciferase gene under regulation by four Gal4 DNA binding elements (UASG×4 TK-Luciferase, a gift from Dr. Ronald M. Evans), in concert with plasmids containing the ligand binding domain for the different nuclear receptors fused to the Gal4 DNA binding domain. For assessing full-length PPAR receptors, CV-1 cells were transiently co-transfected with a plasmid containing the luciferase gene under the control of three tandem PPAR response elements (PPRE) (PPRE×3 TK-Luciferase) and hPPARγ, hPPARα or hPPARδ expression plasmids, respectively. In all cases, fluorescence protein (GFP) expression plasmid was co-transfected as the control for the transfection efficiency. Twenty-four hours after the transfection, cells were cultured for another 24 hours in Optium-MEM (Invitrogen, Carlsbad, Calif.). Then, cells were treated with different compounds as indicated in figures for 24 hours in Optium-MEM. Reporter luciferase assay kits from Promega (Madison, Wis.) were used to measure the luciferase activity according to the manufacturer's instructions with a luminometer (Victor II, Perkin-Elmer). Luciferase activity was normalized by GFP units. Each condition was performed at least in triplicates in each experiment.
PPAR transient transfection assay. […] Twelve hours before transfection, the media was removed and antibiotic-free media was applied. Cells were transiently co-transfected with a plasmid containing the luciferase gene under the control of three tandem PPAR response elements (PPRE) (PPRE×3 TK-Luciferase) and PPARγ, PPARα or PPARδ expression plasmids, respectively. In all cases, fluorescence protein (GFP) expression plasmid was co-transfected as the control for transfection efficiency. Twenty-four hours after transfection, cells the returned to OptiMEM (Invitrogen, Carlsbad, Calif.) for 24 hr and then treated as indicated for another 24 hr. Reporter luciferase assay kits from Promega (Madison, Wis.) were used to measure the luciferase activity according to the manufacturer's instructions with a luminometer (Victor II, Perkin-Elmer). Luciferase activity was normalized by GFP units. Each condition was performed in triplicate in each experiment (n>3).

[2] = test system: 3T3-L1 preadipocytes
[3] = target: T2, Human PPARγ1 (GST-PPARγ) (Homo sapiens, UniProt P37231); test: PPARγ competition binding assay ([^3H]Rosiglitazone displacement); settings: calculated / estimated
T2 sequence (P37231 1-477 isoform P37231-2): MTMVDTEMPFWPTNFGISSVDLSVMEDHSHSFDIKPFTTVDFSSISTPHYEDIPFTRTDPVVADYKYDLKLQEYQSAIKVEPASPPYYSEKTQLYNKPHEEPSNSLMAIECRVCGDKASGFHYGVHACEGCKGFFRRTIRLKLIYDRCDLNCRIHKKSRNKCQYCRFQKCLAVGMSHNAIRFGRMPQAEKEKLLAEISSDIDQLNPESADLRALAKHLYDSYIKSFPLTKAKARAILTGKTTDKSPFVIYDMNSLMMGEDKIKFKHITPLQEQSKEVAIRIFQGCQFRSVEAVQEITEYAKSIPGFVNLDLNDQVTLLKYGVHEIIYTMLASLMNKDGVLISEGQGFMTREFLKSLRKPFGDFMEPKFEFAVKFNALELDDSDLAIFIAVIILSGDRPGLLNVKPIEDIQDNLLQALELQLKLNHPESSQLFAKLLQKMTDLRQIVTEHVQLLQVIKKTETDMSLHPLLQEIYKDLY
Protocol: PPARγ Competition Binding Assay. Human PPARγ1 cDNA was inserted into pGEX from Amersham Biosciences Corp (Piscataway, N.J.) containing the gene encoding glutathione S-transferase (GST). GST-PPARγ protein induction and receptor binding was assessed as previously described (17).

[4] = test system: human vascular endothelial cells and macrophages; test: Whole Human Genome Oligo Array gene expression; type: cell-based; settings: 24 hours; LNO2O 2.5 mM, linoleic acid 2.5 μM
Protocol: The nitroalkenes of the present invention also display regulatory actions towards the expression of genes related to inflammatory responses, cell growth, cell differentiation, cell signaling, cell death (apoptosis) and metabolism. For example, nitrolinoleate regulates gene expression in human vascular endothelial cells and macrophages. Cells were stimulated with vehicle and linoleic acid (2.5 μM, the latter two treatments as controls) and LNO2O ([…]) for 24 hours. The total RNA was purified with a Qiagen Kit and analyzed with a Whole Human Genome Oligo Array (G4112A, 41K Genes, Agilent). […] In contrast, the native (precursor) fatty acid, linoleic acid, only regulates 14 genes, with an up-regulation of 5 genes and the down-regulation of 9 genes.

[5] = test system: NF-kB pathways; test: NF-kB pathway activity (NFkB-response element luciferase reporter, IkB degradation); type: cell-based; settings: reporter in response to TNFa; IkB degradation in response to E. coli LPS
[6] = target: T2, Human PPARγ1 (GST-PPARγ); settings: read-out: previously reported Ki for PPARγ; cited from earlier work

CCCCC/C=C\C=C\C(=O)CCCCCCCC(=O)O [9-oxoODE]
PPARγ-dependent reporter gene expression by LNO2 decay products, oxidized linoleic acid derivatives and •NO donors [1]: modest PPARγ activation

CCCCCCC=CC=CCCCCCCCC(=O)O [CLA1, Δ^9,11-conjugated linoleic acid]
activation of PPARγ reporter gene expression compared with vehicle control [1]: no significant activation

CCCCCC=CC=CCCCCCCCCC(=O)O [CLA2, Δ^10,12-conjugated linoleic acid]
activation of PPARγ reporter gene expression compared with vehicle control [1]: no significant activation

CCCCCCCCCCCCCCCCOC[C@H](COP(=O)([O-])OCC[N+](C)(C)C)OC(=O)CCCCCCCC(=O)O [azPC, 1-O-hexadecyl-2-azelaoyl-sn-glycero-3-phosphocholine]
activation of PPARγ reporter gene expression compared with vehicle control [1]: no significant activation

CCCCCCCCCCCCCCCC(=O)OC[C@H](COP(=O)([O-])OCC[N+](C)(C)C)OC(=O)CCCCCCCC(=O)O [azPC ester, 1-Palmitoy-2-Azelaoyl-sn-Glycero-3-Phosphocholine]
activation of PPARγ reporter gene expression compared with vehicle control [1]: no significant activation

CCCCCCCCC=CCCCCCCCC(=O)O [oleic acid, 9-Octadecenoic acid, reference compound]
adipogenesis / adipocyte differentiation (morphology, oil red O) ([2]; two weeks, Rosiglitazone 3 μM, linoleic acid 10 μM, oleic acid 3 μM): did not induce adipogenesis

CCCCCCCC/C=C\CCCCCCCCOC[C@@H](O)COP(=O)(O)O [LPA-18:1, 1-O-9-(Z)-octadecenyl-2-hydroxy-sn-glycero-3-phosphate]
activation of PPARγ reporter gene expression compared with vehicle control [1]: no significant activation

CCCCC/C=C\C/C=C\CCCCCCCC(=O)O [linoleic acid, reference compound]
activation of PPARγ reporter gene expression compared with vehicle control [1]: no significant activation
Ki [3]: > 1 µM
number of genes down-regulated [4]: 9 genes
number of genes regulated [4]: 14 genes
number of genes up-regulated [4]: 5 genes
activity of NF-kB pathways [5]: not
Ki [6]: 1.7 to 17 µM
expression of adipocyte markers (PPARγ2 and aP2) ([2]; immunoblot of cell lysate): not detected

CCCCCC(=O)/C=C/C=C\CCCCCCCC(=O)O [13-oxoODE]
PPARγ-dependent reporter gene expression by LNO2 decay products, oxidized linoleic acid derivatives and •NO donors [1]: no effect

Source: US9867795B2, “Nitrated lipids and methods of making and using thereof” (The UAB Research Foundation, priority 2004, dated 2018)
